Measured values taken from PubChem BioAssay (NCI).
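The compound was tested at five concentrations on cells cultured in 96-well plates, with a 48-hour exposure period. The concentration for full growth arrest is given as TGI.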

Assays:
Assay in all cases: inhibition of tumour cell growth, NCI panel, 48 h
786-0 renal = test system: 786-0 renal
A498 renal = test system: A498 renal
A549 NSCLC = test system: A549 NSCLC
ACHN renal = test system: ACHN renal
CAKI-1 renal = test system: CAKI-1 renal
CCRF-CEM leukemia = test system: CCRF-CEM leukemia
COLO 205 colon = test system: COLO 205 colon
DLD-1 colon = test system: DLD-1 colon
DMS 114 small cell lung = test system: DMS 114 small cell lung
DMS 273 small cell lung = test system: DMS 273 small cell lung
EKVX NSCLC = test system: EKVX NSCLC
HCC-2998 colon = test system: HCC-2998 colon
HCT-116 colon = test system: HCT-116 colon
HCT-15 colon = test system: HCT-15 colon
HL-60(TB) leukemia = test system: HL-60(TB) leukemia
HOP-18 NSCLC = test system: HOP-18 NSCLC
HOP-62 NSCLC = test system: HOP-62 NSCLC
HOP-92 NSCLC = test system: HOP-92 NSCLC
HT29 colon = test system: HT29 colon
IGROV1 ovarian = test system: IGROV1 ovarian
K-562 leukemia = test system: K-562 leukemia
KM12 colon = test system: KM12 colon
KM20L2 colon = test system: KM20L2 colon
LOX IMVI melanoma = test system: LOX IMVI melanoma
LXFL 529 NSCLC = test system: LXFL 529 NSCLC
M14 melanoma = test system: M14 melanoma
M19-MEL melanoma = test system: M19-MEL melanoma
MALME-3M melanoma = test system: MALME-3M melanoma
MOLT-4 leukemia = test system: MOLT-4 leukemia
NCI-H226 lung = test system: NCI-H226 lung
NCI-H23 lung = test system: NCI-H23 lung
NCI-H460 lung = test system: NCI-H460 lung
OVCAR-3 ovarian = test system: OVCAR-3 ovarian
OVCAR-4 ovarian = test system: OVCAR-4 ovarian
OVCAR-5 ovarian = test system: OVCAR-5 ovarian
OVCAR-8 ovarian = test system: OVCAR-8 ovarian
RPMI-8226 leukemia = test system: RPMI-8226 leukemia
RXF 393 renal = test system: RXF 393 renal
RXF-631 renal = test system: RXF-631 renal
SF-268 CNS = test system: SF-268 CNS
SF-295 CNS = test system: SF-295 CNS
SF-539 CNS = test system: SF-539 CNS
SK-MEL-2 melanoma = test system: SK-MEL-2 melanoma
SK-MEL-28 melanoma = test system: SK-MEL-28 melanoma
SK-MEL-5 melanoma = test system: SK-MEL-5 melanoma
SK-OV-3 ovarian = test system: SK-OV-3 ovarian
SN12C renal = test system: SN12C renal
SNB-19 CNS = test system: SNB-19 CNS
SNB-75 CNS = test system: SNB-75 CNS
SNB-78 CNS = test system: SNB-78 CNS
SW-620 colon = test system: SW-620 colon
TK-10 renal = test system: TK-10 renal
U251 CNS = test system: U251 CNS
UACC-257 melanoma = test system: UACC-257 melanoma
UACC-62 melanoma = test system: UACC-62 melanoma
XF 498 CNS = test system: XF 498 CNS
NCI-H522 lung = test system: NCI-H522 lung
SR leukemia = test system: SR leukemia
UO-31 renal = test system: UO-31 renal

Measured: TGI

Cc1ccc(N=Nc2c(C)nn(-c3ccccc3)c2C)c(Br)c1
not listed: NCI-H522 lung | SR leukemia | UO-31 renal
> 100 µM: all other assays above

Cc1cccc(C)c1NC(=O)CCC(=O)NNc1nnc(C)n1N
> 100 µM: all assays above
